Results on nine molecules are retold here after US20250206729A1, “DUAL RAF AND TUBULIN INHIBITORS AND METHODS OF USE THEREOF” (Deciphera Pharmaceuticals, LLC, priority 2023, published 2025).

The subject of one assay is Pa16c cells. Kind of assay: Pa16c cell proliferation assay. To be noted: 67 to 72 h incubation, resazurin; read-out: Pa16c (inhibition of cell proliferation, IC50). The format is cell-based. Background: Alamar Blue is a resazurin reagent that responds to reducing activity.
Assay [1] concerns the target T1, C-Raf kinase (SEQ ID NO: 2) (Homo sapiens, UniProt P04049, Y340D/Y341D).
T1 construct: C-Raf residues 306-end; Y340D, Y341D with N-; GST (N); purchased Sigma
The assay can be described thus: Biochemical assay for C-Raf (coupled pyruvate kinase/lactate dehydrogenase).

In a further assay the test system is HCT-116 cells. The assay can be described thus: HCT-116 cell proliferation assay. The conditions noted are these: Homo sapiens. The assay is classed as cell-based.
Assay [2] deals with T2, B-Raf kinase (SEQ ID NO: 1) (Homo sapiens, UniProt P15056).
T2 construct: GST (N); purchased Sigma
Kind of assay: Biochemical assay for B-Raf (coupled pyruvate kinase/lactate dehydrogenase).

In the next assay the test system is MiaPaca-2 cells. The assay can be described thus: MiaPaca-2 cell proliferation assay. The format is cell-based. The conditions noted are these: Homo sapiens, MIA PaCa-2.
The next assay deals with HPAF-II cells. The assay can be described thus: HPAF-II cell proliferation assay. To be noted: Homo sapiens. The assay is classed as cell-based.
For assay [3], the system named is tubulin polymerization in HCT-116 cells. Kind of assay: Cellular tubulin polymerization assay (HCT-116 cells). The format is cell-based. As for the experimental part: HCT-116 cells (catalog #CCL-247) are obtained from the American Type Culture Collect (ATCC, Manassas, VA). Briefly, cells are grown in McCoy's 5A supplemented with 10% characterized fetal bovine serum (Invitrogen, Carlsbad, CA) and 1% Penicillin/Streptomycin/L-Glutamine at 37° C., 5% CO2, and 95% humidity. Cells are expanded until reaching 70-95% confluency at which point they are sub-cultured or harvested for assay use. 450000 cells are added per well in 1500 μL complete growth medium in a tissue culture treated, 12-well plate. Plates are incubated for 18 to 24 h at 37° C., 5% CO2, and 95% humidity. At the end of the incubation, 2000 μL of base culture media is added to each well, followed by a serial dilution of compound. Plates are incubated for an additional 1 h at 37° C., 5% CO2, and 95% humidity. Lysates are generated by the addition of 100 μL Lysis and Microtubule Stabilization Buffer 1 (LMSO1, Cytoskeleton Inc, Denver, CO) supplemented with GTP (BST06, Cytoskeleton Inc), ATP (BSA04, Cytoskeleton Inc), and Protease Inhibitor Cocktail Stock (PIC02, Cytoskeleton Inc). Cells are scraped off wells using a rubber cell scraper and collected in a clean 96-well plate. Lysates are centrifuged at 1000× g, 37° C. for 10 min and supernatant fraction is placed into an additional 96-well plate. The remaining pellet fraction is reconstituted in 100 μL LMS01 buffer and sonicated for 10 min. Pellet and Supernatant fractions are probed for α-tubulin via western blot analysis on the Jess System or equivalent (Bio-techne, Minneapolis, MN). Data is analyzed using Prism software (Graphpad, San Diego, CA) to calculate IC50 values.

The next assay addresses Porcine Brain Tubulin (Sus scrofa, UniProt P02550+P02554). Kind of assay: Biochemical tubulin polymerization assay. To be noted: maximum velocity of polymerization, FIG. 1; read-out: IC50 of inhibition of tubulin polymerization, biochemical tubulin assay.
Where [4] appears, read: 1 mM ATP, read-out: CRAF (inhibition of biochemical activity, IC50).
[5] abbreviates: HCT-116, 67 to 72 h incubation, resazurin, read-out: HCT-116 (inhibition of cell proliferation, IC50).
[6] abbreviates: Table 3, mutant KRAS colorectal cancer cell line, anti-proliferative, read-out: HCT-116.
Where [7] appears, read: 1 mM ATP, read-out: BRAF (inhibition of biochemical activity, IC50).
Where [8] appears, read: 67-72 h incubation, resazurin, read-out: MiaPaca-2 (inhibition of cell proliferation, IC50).
Setting [9] is: Table 3, mutant KRAS pancreatic cancer cell line, anti-proliferative, read-out: MiaPaca-2.
The mark [10] stands for this setting: HPAF-II, 115 to 120 h incubation, resazurin, read-out: HPAF-II (inhibition of cell proliferation, IC50).
Setting [11] is: Table 3, mutant KRAS pancreatic cancer cell line, anti-proliferative, read-out: HPAF-II.
The mark [12] stands for this setting: Table 3, HCT-116 cells, read-out: Tubulin Cellular.

Like-named read-outs stand apart in the source and are kept apart here.

T1 sequence (P04049 307-648 Y340D/Y341D): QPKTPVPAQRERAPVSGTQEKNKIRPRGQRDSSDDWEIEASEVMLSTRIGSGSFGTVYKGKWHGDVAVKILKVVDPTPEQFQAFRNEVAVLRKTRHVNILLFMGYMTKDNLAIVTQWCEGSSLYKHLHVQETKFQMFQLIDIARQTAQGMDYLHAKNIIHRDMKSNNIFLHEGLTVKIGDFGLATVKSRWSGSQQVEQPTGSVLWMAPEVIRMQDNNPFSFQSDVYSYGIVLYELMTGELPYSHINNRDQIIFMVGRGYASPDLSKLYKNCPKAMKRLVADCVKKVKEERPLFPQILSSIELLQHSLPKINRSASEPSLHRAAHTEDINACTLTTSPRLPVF
T2 sequence (P15056 416-766): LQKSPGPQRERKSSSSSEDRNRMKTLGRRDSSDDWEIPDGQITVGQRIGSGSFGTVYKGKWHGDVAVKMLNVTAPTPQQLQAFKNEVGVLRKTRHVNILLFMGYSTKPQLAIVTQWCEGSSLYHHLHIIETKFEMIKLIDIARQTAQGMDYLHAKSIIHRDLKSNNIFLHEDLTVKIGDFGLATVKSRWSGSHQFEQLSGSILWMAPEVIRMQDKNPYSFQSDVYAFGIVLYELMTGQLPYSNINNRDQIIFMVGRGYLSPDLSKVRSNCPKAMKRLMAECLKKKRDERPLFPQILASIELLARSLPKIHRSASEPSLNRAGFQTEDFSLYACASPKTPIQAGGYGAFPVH
Sequence of Porcine Brain Tubulin (P02554 whole entry): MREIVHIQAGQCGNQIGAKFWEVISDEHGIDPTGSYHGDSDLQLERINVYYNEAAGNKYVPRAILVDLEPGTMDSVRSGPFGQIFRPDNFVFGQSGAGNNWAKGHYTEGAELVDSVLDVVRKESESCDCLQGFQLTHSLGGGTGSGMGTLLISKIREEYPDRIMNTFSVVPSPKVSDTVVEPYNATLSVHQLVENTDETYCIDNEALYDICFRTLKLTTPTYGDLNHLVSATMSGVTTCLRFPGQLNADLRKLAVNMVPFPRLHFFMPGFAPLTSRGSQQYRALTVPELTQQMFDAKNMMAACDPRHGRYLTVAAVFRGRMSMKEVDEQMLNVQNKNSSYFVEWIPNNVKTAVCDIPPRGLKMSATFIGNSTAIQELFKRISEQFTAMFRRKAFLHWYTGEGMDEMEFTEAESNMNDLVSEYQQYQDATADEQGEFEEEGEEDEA
Sequence of Porcine Brain Tubulin (P02550 whole entry): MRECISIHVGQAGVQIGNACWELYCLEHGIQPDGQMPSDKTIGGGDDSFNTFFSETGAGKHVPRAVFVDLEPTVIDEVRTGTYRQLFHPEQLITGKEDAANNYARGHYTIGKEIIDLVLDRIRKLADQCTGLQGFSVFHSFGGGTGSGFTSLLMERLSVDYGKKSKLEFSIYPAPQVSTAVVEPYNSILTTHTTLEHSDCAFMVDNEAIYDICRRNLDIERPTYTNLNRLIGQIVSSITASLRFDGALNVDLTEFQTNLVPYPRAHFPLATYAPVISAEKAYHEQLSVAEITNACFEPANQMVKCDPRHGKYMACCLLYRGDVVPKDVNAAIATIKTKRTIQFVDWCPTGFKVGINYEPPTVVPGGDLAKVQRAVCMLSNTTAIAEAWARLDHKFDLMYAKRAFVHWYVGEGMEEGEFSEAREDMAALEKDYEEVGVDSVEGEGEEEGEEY

For the molecule `Cc1ccc(NC(=O)c2cc(C(F)(F)F)cnn2)cc1-c1cncc(N2CCOCC2)c1` [Example 27], the IC50 in the assay on Pa16c cells is 100 to 500 nM; in assay [1] (setting [4]) it was under 100 nM; in assay [1] (Table 3, read-out: CRAF), under 100 nM; with HCT-116 cells (setting [5]), 100 to 500 nM; in the assay on HCT-116 cells (setting [6]) it was 100 to 500 nM; in assay [2] (setting [7]), 100 to 500 nM. Further, the IC50 is 100 to 500 nM in assay [2] (Table 3, read-out: BRAF); under 100 nM in the assay on MiaPaca-2 cells (setting [8]); under 100 nM with MiaPaca-2 cells (setting [9]); 100 to 500 nM in the assay with HPAF-II cells (setting [10]); 100 to 500 nM in the assay with HPAF-II cells (setting [11]); 100 to 500 nM in assay [3] (setting [12]).
In the case of `Cc1ccc(NC(=O)c2cc(C(F)(F)F)cnn2)cc1-c1ccnc(N2CCOCC2)n1` [Example 29], the IC50 with Pa16c cells lay in the range of 100 to 500 nM; in assay [1] (setting [4]), 1000 to 10000 nM; in assay [1] (Table 3, read-out: CRAF) it was 1000 to 10000 nM; in the assay on HCT-116 cells (setting [5]), 100 to 500 nM; in the assay with HCT-116 cells (setting [6]), 100 to 500 nM; in assay [2] (setting [7]), 1000 to 10000 nM. In addition, the IC50 in assay [2] (Table 3, read-out: BRAF) is 1000 to 10000 nM; in the assay on MiaPaca-2 cells (setting [8]), under 100 nM; with MiaPaca-2 cells (setting [9]), under 100 nM; with HPAF-II cells (setting [10]) it was 100 to 500 nM; with HPAF-II cells (setting [11]) it was 100 to 500 nM; in assay [3] (setting [12]), under 100 nM.
Consider `Cc1ccc(NC(=O)c2cc(C(C)(C)F)cnn2)cc1-c1cc(OCCO)nc(N2CCOCC2)c1` [Example 34], for which the IC50 is under 100 nM in the assay with Pa16c cells; under 100 nM in assay [1] (setting [4]); under 100 nM in assay [1] (Table 3, read-out: CRAF); under 100 nM with HCT-116 cells (setting [5]); under 100 nM with HCT-116 cells (setting [6]); under 100 nM in assay [2] (setting [7]). Further, the IC50 in assay [2] (Table 3, read-out: BRAF) was under 100 nM; with MiaPaca-2 cells (setting [8]), under 100 nM; in the assay on MiaPaca-2 cells (setting [9]) it was under 100 nM; with HPAF-II cells (setting [10]), under 100 nM; in the assay on HPAF-II cells (setting [11]), under 100 nM; in assay [3] (setting [12]), 100 to 500 nM.
As for `Cc1ccc(NC(=O)c2cc(C3CC3)cnn2)cc1-c1cc(OCCO)nc(N2CCOCC2)c1` [Example 37], the IC50 in the assay with Pa16c cells was under 100 nM; in assay [1] (setting [4]), under 100 nM; in assay [1] (Table 3, read-out: CRAF) it was under 100 nM; in the assay with HCT-116 cells (setting [5]), under 100 nM; in the assay with HCT-116 cells (setting [6]) it was under 100 nM; in assay [2] (setting [7]), under 100 nM. In addition, the IC50 is under 100 nM in assay [2] (Table 3, read-out: BRAF); under 100 nM in the assay with MiaPaca-2 cells (setting [8]); under 100 nM with MiaPaca-2 cells (setting [9]); under 100 nM in the assay on HPAF-II cells (setting [10]); under 100 nM in the assay on HPAF-II cells (setting [11]); under 100 nM in assay [3] (setting [12]).
For the molecule `Cc1ccc(NC(=O)c2cc(C(F)(F)F)cnn2)cc1-c1cc(N2CCOCC2)nc(OCCO)n1` [Example 44], the IC50 is under 100 nM in the assay with Pa16c cells; 100 to 500 nM in assay [1] (setting [4]); 100 to 500 nM in assay [1] (Table 3, read-out: CRAF); under 100 nM in the assay on HCT-116 cells (setting [5]); under 100 nM in the assay with HCT-116 cells (setting [6]); 100 to 500 nM in assay [2] (setting [7]). For the same molecule, the IC50 is 100 to 500 nM in assay [2] (Table 3, read-out: BRAF); under 100 nM in the assay with MiaPaca-2 cells (setting [8]); under 100 nM with MiaPaca-2 cells (setting [9]); under 100 nM in the assay with HPAF-II cells (setting [10]); under 100 nM in the assay with HPAF-II cells (setting [11]); 100 to 500 nM in assay [3] (setting [12]).
Take `Cc1ccc(NC(=O)c2cc(C3CCC3)cnn2)cc1-c1cc(N[C@H](C)CO)nc(N2CCOCC2)c1` [Example 48]: the IC50 is under 100 nM in the assay on Pa16c cells; under 100 nM in assay [1] (setting [4]); under 100 nM in assay [1] (Table 3, read-out: CRAF); under 100 nM in the assay on HCT-116 cells (setting [5]); under 100 nM in the assay with HCT-116 cells (setting [6]); under 100 nM in assay [2] (setting [7]). Also, the IC50 in assay [2] (Table 3, read-out: BRAF) was under 100 nM; in the assay on MiaPaca-2 cells (setting [8]), under 100 nM; in the assay with MiaPaca-2 cells (setting [9]), under 100 nM; with HPAF-II cells (setting [10]) it was 500 to 1000 nM; in the assay with HPAF-II cells (setting [11]) it was 500 to 1000 nM; in assay [3] (setting [12]), under 100 nM.
`Cc1ccc(NC(=O)c2cc(C(F)(F)F)cnn2)cc1-c1nc(N[C@H](C)CO)cc(N2CCOCC2)n1` [Example 49]: the IC50 in the assay with Pa16c cells was in the range of 100 to 500 nM; in assay [1] (setting [4]), 1000 to 10000 nM; in assay [1] (Table 3, read-out: CRAF), 1000 to 10000 nM; in the assay on HCT-116 cells (setting [5]), 100 to 500 nM; with HCT-116 cells (setting [6]), 100 to 500 nM; in assay [2] (setting [7]), 1000 to 10000 nM. The IC50 fell in the range of 1000 to 10000 nM in assay [2] (Table 3, read-out: BRAF); 100 to 500 nM in the assay with MiaPaca-2 cells (setting [8]); 100 to 500 nM in the assay on MiaPaca-2 cells (setting [9]); 100 to 500 nM in the assay with HPAF-II cells (setting [10]); 100 to 500 nM in the assay on HPAF-II cells (setting [11]); 100 to 500 nM in assay [3] (setting [12]).
Consider `Cc1ccc(NC(=O)c2cc(C(F)(F)F)cnn2)cc1-c1ccnc(N2CC3CCC(C2)O3)c1` [Example 83], for which the IC50 was under 100 nM in the assay on Pa16c cells; under 100 nM in assay [1] (setting [4]); under 100 nM in assay [1] (Table 3, read-out: CRAF); under 100 nM in the assay on HCT-116 cells (setting [5]); under 100 nM in the assay with HCT-116 cells (setting [6]); under 100 nM in assay [2] (setting [7]). For the same molecule, the IC50 in assay [2] (Table 3, read-out: BRAF) is under 100 nM; with MiaPaca-2 cells (setting [8]), under 100 nM; in the assay on MiaPaca-2 cells (setting [9]) it was under 100 nM; in the assay with HPAF-II cells (setting [10]), under 100 nM; in the assay on HPAF-II cells (setting [11]), under 100 nM; in assay [3] (setting [12]), under 100 nM.
On to `CC(C)(C)c1[nH]cnc1/C=c1\[nH]c(=O)/c(=C/c2ccccc2)[nH]c1=O` [plinabulin, reference compound], for which the IC50 turned out to be 2700 nM at Porcine Brain Tubulin and 5 nM in assay [3] (ratio of pellet to supernatant vs DMSO control, HCT-116, FIG. 2, read-out: IC50 of inhibition of tubulin polymerization, cellular tubulin assay).
